# Publication PMC4450806, “The cytochrome bd-type quinol oxidase is important for survival of Mycobacterium smegmatis under peroxide and antibiotic-induced stress” (Scientific Reports, 2015)
# Biological target: T1, cytochrome bd-type quinol oxidase (cytochrome bd) (Mycolicibacterium smegmatis, UniProt A0QXA8)
# T1 construct: gene MSMEG_3233; native enzyme in inverted membrane vesicles of the ΔqcrCAB :: hyg strain (cytochrome bd as the only respiratory branch); with CydB (cytochrome bd subunit)
# Assay: NADH-driven oxygen consumption of inverted membrane vesicles (Clark-type electrode), wild-type versus bc1-knockout strain
# Type: biochemical
smiles,measurement,value
CC(C)=CCC/C(C)=C/CC/C(C)=C/Cc1c(C)[nH]c2ccccc2c1=O [aurachin D],IC50,~400 nM
